Among the test systems are OVCAR-3 ovarian; NCI/ADR-RES ovarian; MDA-MB-231 breast; HCT-116 colon; HS 578T breast; UACC-62 melanoma; M14 melanoma; SF-539 CNS; PC-3 prostate; UACC-257 melanoma; MDA-N; 786-0 renal; SNB-75 CNS; SN12C renal; HOP-92 NSCLC; HCC-2998 colon.
Assay in all cases: DTP human tumour cell line panel, 48 h

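Test compounds were applied to cells in 96-well plates for 48 hours at 5 doses. At the TGI there is no net growth.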

In general, TGI refers to the concentration at which net growth stops. As for `N#CC(NNC(=O)Cc1ccccc1)c1ccccc1O` (configuration not stated), the TGI in the assay with OVCAR-3 ovarian is over 43.6 µM; with NCI/ADR-RES ovarian, over 74.6 µM; in the assay on MDA-MB-231 breast, over 72 µM; in the assay with HCT-116 colon, over 100 µM; in the assay with HS 578T breast, over 100 µM; in the assay with UACC-62 melanoma, 28.8 µM. Moreover, the concentration for total growth inhibition (TGI) with M14 melanoma was 24.2 µM; in the assay on SF-539 CNS, 85.1 µM; in the assay with PC-3 prostate it was over 100 µM; in the assay with UACC-257 melanoma it was over 94.3 µM; in the assay with MDA-N it was over 100 µM; with 786-0 renal it was 72.5 µM. In addition, the concentration for total growth inhibition (TGI) is 85.6 µM in the assay on SNB-75 CNS, over 100 µM in the assay on SN12C renal, over 92.1 µM in the assay on HOP-92 NSCLC and 56.1 µM in the assay with HCC-2998 colon.
In the case of `O=C(C(=O)N1CCc2ccccc21)c1c[nH]c2ccccc12`, the concentration for total growth inhibition (TGI) in the assay on OVCAR-3 ovarian, in the assay on NCI/ADR-RES ovarian, in the assay with MDA-MB-231 breast, in the assay with HCT-116 colon, in the assay on HS 578T breast and in the assay on UACC-62 melanoma was over 10 µM in each case. In addition, the TGI with M14 melanoma, with SF-539 CNS, with PC-3 prostate, in the assay on UACC-257 melanoma, with MDA-N and in the assay on 786-0 renal was over 10 µM each time. For the same molecule, the TGI in the assay on SNB-75 CNS, with SN12C renal, in the assay with HOP-92 NSCLC and in the assay with HCC-2998 colon was over 10 µM each time.
With `COC(CN(C(=O)c1ccccc1)C1CCC2(SCCS2)c2[nH]c3ccccc3c21)OC` (configuration not stated), the concentration for total growth inhibition (TGI) in the assay with OVCAR-3 ovarian, with NCI/ADR-RES ovarian, in the assay on MDA-MB-231 breast, in the assay on HCT-116 colon, in the assay with HS 578T breast and in the assay on M14 melanoma was over 100 µM throughout. Also, the concentration for total growth inhibition (TGI) in the assay on SF-539 CNS was over 100 µM; in the assay with PC-3 prostate, 77.1 µM; with UACC-257 melanoma it was 33.5 µM; with MDA-N, 49 µM; in the assay on 786-0 renal, over 100 µM; with SNB-75 CNS, over 100 µM. Also, the TGI in the assay on SN12C renal, in the assay on HOP-92 NSCLC and in the assay on HCC-2998 colon was over 100 µM in each case.
With `CCOC(=O)CC1c2ccc(O)cc2OC(=O)C1c1ccc([N+](=O)[O-])cc1` (configuration not stated), the TGI in the assay with OVCAR-3 ovarian was over 100 µM; in the assay with NCI/ADR-RES ovarian, 72.6 µM; with MDA-MB-231 breast it was 48.6 µM; in the assay on HCT-116 colon, 82.3 µM; in the assay with HS 578T breast, over 100 µM; in the assay with UACC-62 melanoma, 84.4 µM. Also, the total growth inhibition concentration (TGI) in the assay with M14 melanoma is 43.8 µM; in the assay with SF-539 CNS, over 100 µM; with PC-3 prostate, 67.2 µM; in the assay on UACC-257 melanoma, 94.5 µM; in the assay with MDA-N, 93.5 µM; with 786-0 renal, over 100 µM. The TGI is 56 µM in the assay on SNB-75 CNS, 81.3 µM in the assay on SN12C renal, 63.2 µM in the assay on HOP-92 NSCLC and 60.6 µM in the assay with HCC-2998 colon.
On to `CC(C)=CCS(=O)c1ccccc1NC1=CC(=O)CC(C)(C)C1` (configuration not stated), for which the TGI in the assay with OVCAR-3 ovarian, in the assay on NCI/ADR-RES ovarian, in the assay with MDA-MB-231 breast, with HCT-116 colon, with HS 578T breast and with UACC-62 melanoma was over 100 µM throughout. The TGI in the assay with M14 melanoma, in the assay on SF-539 CNS, with PC-3 prostate, in the assay on UACC-257 melanoma, in the assay on MDA-N and in the assay on 786-0 renal was over 100 µM in each case. Also, the total growth inhibition concentration (TGI) with SNB-75 CNS, in the assay on SN12C renal, with HOP-92 NSCLC and with HCC-2998 colon was over 100 µM in each case.
`COc1cccc(CCn2c(N)c(-c3ccccc3)c3ccc([N+](=O)[O-])cc3c2=O)c1`: the TGI with OVCAR-3 ovarian turned out to be 6.51 µM; with NCI/ADR-RES ovarian, 5.21 µM; in the assay with MDA-MB-231 breast it was 29.6 µM; in the assay with HCT-116 colon it was 10 µM; in the assay on HS 578T breast, 5.25 µM; with UACC-62 melanoma, 30.7 µM. The TGI was 24.3 µM in the assay on M14 melanoma; 6.28 µM in the assay with SF-539 CNS; over 79 µM in the assay on PC-3 prostate; 40.8 µM with UACC-257 melanoma; 43.7 µM in the assay on MDA-N; 19.4 µM in the assay on 786-0 renal. In addition, the concentration for total growth inhibition (TGI) turned out to be 11.1 µM with SNB-75 CNS, 1.53 µM with SN12C renal, 31.2 µM in the assay with HOP-92 NSCLC and 24.8 µM in the assay on HCC-2998 colon.
`CCC1OC2C(CC=C(C)C)=C3OC(C)(O)C(C)(CC)C(OC(=O)c4ccccc4)C3=C3OC(=O)C=C1C32` (configuration not stated): the TGI in the assay on OVCAR-3 ovarian is over 100 µM; with NCI/ADR-RES ovarian, over 100 µM; with MDA-MB-231 breast it was 49.1 µM; in the assay on HCT-116 colon, over 100 µM; in the assay with HS 578T breast it was over 100 µM; in the assay with UACC-62 melanoma, over 100 µM. Further, the TGI is over 100 µM in the assay with M14 melanoma; 54.1 µM in the assay on SF-539 CNS; over 100 µM in the assay with PC-3 prostate; over 100 µM with UACC-257 melanoma; 44.4 µM in the assay on MDA-N; over 100 µM in the assay with 786-0 renal. Further, the TGI in the assay on SNB-75 CNS was over 100 µM; in the assay with SN12C renal, 79 µM; with HOP-92 NSCLC, over 100 µM; in the assay on HCC-2998 colon, 48.4 µM.
As to `O=C(CC(c1ccccc1)N1CCCCC1)c1ccccc1` (configuration not stated), the TGI in the assay on OVCAR-3 ovarian was determined as 23.9 µM; with NCI/ADR-RES ovarian, 60.8 µM; with MDA-MB-231 breast it was 34.6 µM; with HCT-116 colon, 19.9 µM; with HS 578T breast, 70.5 µM; with UACC-62 melanoma, 30.7 µM. Also, the concentration for total growth inhibition (TGI) with M14 melanoma turned out to be 42.3 µM; with SF-539 CNS, 39.2 µM; with PC-3 prostate it was 29.4 µM; in the assay on UACC-257 melanoma it was 27.8 µM; in the assay with MDA-N, 27.3 µM; with 786-0 renal, 25.9 µM. The concentration for total growth inhibition (TGI) is 31.4 µM with SNB-75 CNS, 32.6 µM in the assay with SN12C renal, 32.7 µM in the assay on HOP-92 NSCLC and 15.6 µM with HCC-2998 colon.
Regarding `CC(=O)N(C(=O)CC(=O)N/N=C\c1ccc(Br)c(N(CCC#N)CCC#N)c1)c1ccc(Cl)cc1`, the TGI in the assay on OVCAR-3 ovarian, in the assay on NCI/ADR-RES ovarian, with MDA-MB-231 breast, in the assay on HCT-116 colon, in the assay on HS 578T breast and in the assay on UACC-62 melanoma was over 100 µM each time. The total growth inhibition concentration (TGI) with M14 melanoma, with SF-539 CNS, in the assay on PC-3 prostate, with MDA-N, in the assay with 786-0 renal and with SNB-75 CNS was over 100 µM each time. In addition, the total growth inhibition concentration (TGI) in the assay on SN12C renal, in the assay on HOP-92 NSCLC and with HCC-2998 colon was over 100 µM each time.

The values above are taken from PubChem BioAssay (NCI).
